Data as given in ChEMBL document CHEMBL3046146, “Mutations in the mitochondrial cytochrome b of Tetranychus urticae Koch (Acari: Tetranychidae) confer cross-resistance between bifenazate and acequinocyl” (2009).
In brackets after ≈: the same amount, converted by molar mass.

Assays:
Format in all cases: functional
Tetranychus urticae [1] = test: Toxicity against adult Tetranychus urticae BR-VL (two-spotted spider mite) in bean leaves assessed as mortality treated 24 hr after 2000 mg/L cytochrome P450 monoxygenase inhibitor, PBO application
Tetranychus urticae [2] = test: Toxicity against adult Tetranychus urticae BR-VL (two-spotted spider mite) in bean leaves assessed as mortality treated 24 hr after 2000 mg/L GST inhibitor, DEM application
Tetranychus urticae [3] = test: Resistance ratio of LC50 for Tetranychus urticae HOL2 (two-spotted spider mite) harboring mitochondrial G126S Cytb mutation to LC50 for Tetranychus urticae GSS
Tetranychus urticae [4] = test: Synergism ratio of LC50 for adult Tetranychus urticae GSS (two-spotted spider mite) to LC50 for adult Tetranychus urticae GSS in presence of 2000 mg/L cytochrome P450 monoxygenase inhibitor, PBO
Tetranychus urticae [5] = test: Toxicity against adult METI-resistant Tetranychus urticae MR-VP (two-spotted spider mite) in compound pretreated bean leaves assessed as mortality
Tetranychus urticae [6] = test: Toxicity against adult Tetranychus urticae HOL4 (two-spotted spider mite) harboring mitochondrial G126S Cytb mutation in compound pretreated bean leaves assessed as mortality
Tetranychus urticae [7] = test: Toxicity against adult Tetranychus urticae MR-VL (two-spotted spider mite) in compound pretreated bean leaves assessed as mortality
Tetranychus urticae [8] = test: Toxicity against female adult Tetranychus urticae (two-spotted spider mite) F1 progeny generated from reciprocal cross between female BEL1 and male GSS in compound pretreated bean leaves assesed as mortality
Tetranychus urticae [9] = test: Toxicity against adult Tetranychus urticae GSS (two-spotted spider mite) in bean leaves assessed as mortality treated 24 hr after 1000 mg/L esterase inhibitor, DEF application
Tetranychus urticae [10] = test: Resistance ratio of LC50 for Tetranychus urticae HOL1 (two-spotted spider mite) harboring mitochondrial G126S and I136T Cytb mutation to LC50 for Tetranychus urticae GSS
Tetranychus urticae [11] = test: Toxicity against adult bifenazate-resistant Tetranychus urticae BR-VL (two-spotted spider mite) harboring mitochondrial G126S, S141F and D161G Cytb mutation in compound pretreated bean leaves assessed as mortality
Tetranychus urticae [12] = test: Resistance ratio of LC50 for bifenazate-resistant Tetranychus urticae (two-spotted spider mite) BEL1 harboring mitochondrial P262T Cytb fixed mutation to LC50 for Tetranychus urticae GSS
Tetranychus urticae [13] = test: Toxicity against adult Tetranychus urticae BEL1 (two-spotted spider mite) in bean leaves assessed as mortality treated 24 hr after 2000 mg/L esterase inhibitor, DEF application; settings: BEL-1, 24 h
Tetranychus urticae [14] = test: Toxicity against adult Tetranychus urticae BR-VL (two-spotted spider mite) in bean leaves assessed as mortality treated 24 hr after 2000 mg/L esterase inhibitor, DEF application
Tetranychus urticae [15] = test: Resistance ratio of LC50 for bifenazate-susceptible Tetranychus urticae LS-VL (two-spotted spider mite) to LC50 for Tetranychus urticae GSS
Tetranychus urticae [16] = test: Toxicity against adult bifenazate-susceptible Tetranychus urticae LS-VL (two-spotted spider mite) in compound pretreated bean leaves assessed as mortality
Tetranychus urticae [17] = test: Resistance ratio of LC50 for Tetranychus urticae (two-spotted spider mite) HOL4 harboring mitochondrial G126S Cytb mutation to LC50 for Tetranychus urticae GSS
Tetranychus urticae [18] = test: Toxicity against adult Tetranychus urticae HOL1 (two-spotted spider mite) harboring mitochondrial G126S and I136T Cytb mutation in compound pretreated bean leaves assessed as mortality
Tetranychus urticae [19] = test: Synergism ratio of LC50 for adult Tetranychus urticae GSS (two-spotted spider mite) to LC50 for adult Tetranychus urticae GSS in presence of 2000 mg/L GST inhibitor, DEM application
Tetranychus urticae [20] = test: Toxicity against female adult Tetranychus urticae (two-spotted spider mite) F1 progeny generated from reciprocal cross between female GSS and male BR-VL in compound pretreated bean leaves assesed as mortality
Tetranychus urticae [21] = test: Resistance ratio of LC50 for bifenazate-resistant Tetranychus urticae BR-VL (two-spotted spider mite) harboring mitochondrial G126S, S141F and D161G Cytb mutation to LC50 for Tetranychus urticae GSS
Tetranychus urticae [22] = test: Toxicity against adult Tetranychus urticae HOL3 (two-spotted spider mite) harboring mitochondrial P262T Cytb heteroplasmic mutation in compound pretreated bean leaves assessed as mortality
Tetranychus urticae [23] = test: Toxicity against female adult Tetranychus urticae (two-spotted spider mite) F1 progeny generated from reciprocal cross between female GSS and male BEL1 in compound pretreated bean leaves assesed as mortality
Tetranychus urticae [24] = test: Toxicity against adult Tetranychus urticae BEL1 (two-spotted spider mite) in bean leaves assessed as mortality treated 24 hr after 2000 mg/L cytochrome P450 monoxygenase inhibitor, PBO application; settings: BEL-1, 24 h
Tetranychus urticae [25] = test: Toxicity against adult Tetranychus urticae GSS (two-spotted spider mite) in bean leaves assessed as mortality treated 24 hr after 2000 mg/L cytochrome P450 monoxygenase inhibitor, PBO application
Tetranychus urticae [26] = test: Toxicity against female adult Tetranychus urticae (two-spotted spider mite) F1 progeny generated from reciprocal cross between female BR-VL and male GSS in compound pretreated bean leaves assesed as mortality
Tetranychus urticae [27] = test: Resistance ratio of LC50 for Tetranychus urticae WI (two-spotted spider mite) to LC50 for Tetranychus urticae GSS
Tetranychus urticae [28] = test: Toxicity against adult Tetranychus urticae GSS (two-spotted spider mite) in compound pretreated bean leaves assessed as mortality
Tetranychus urticae [29] = test: Toxicity against adult bifenazate-resistant Tetranychus urticae BEL1 (two-spotted spider mite) harboring mitochondrial P262T Cytb fixed mutation in compound pretreated bean leaves assessed as mortality; settings: BEL-1
Tetranychus urticae [30] = test: Toxicity against adult Tetranychus urticae BEL1 (two-spotted spider mite) in bean leaves assessed as mortality treated 24 hr after 2000 mg/L GST inhibitor, DEM application; settings: BEL-1, 24 h
Tetranychus urticae [31] = test: Resistance ratio of LC50 for Tetranychus urticae HOL3 (two-spotted spider mite) harboring mitochondrial P262T Cytb heteroplasmic mutation to LC50 for Tetranychus urticae GSS
Tetranychus urticae [32] = test: Synergism ratio of LC50 for adult Tetranychus urticae GSS (two-spotted spider mite) to LC50 for adult Tetranychus urticae GSS in presence of 1000 mg/L esterase inhibitor, DEF application
Tetranychus urticae [33] = test: Toxicity against adult Tetranychus urticae HOL2 (two-spotted spider mite) harboring mitochondrial G126S Cytb mutation in compound pretreated bean leaves assessed as mortality
Tetranychus urticae [34] = test: Toxicity against adult Tetranychus urticae GSS (two-spotted spider mite) in bean leaves assessed as mortality treated 24 hr after 2000 mg/L GST inhibitor, DEM application
Tetranychus urticae [35] = test: Resistance ratio of LC50 for Tetranychus urticae MR-VL (two-spotted spider mite) to LC50 for Tetranychus urticae GSS
Tetranychus urticae [36] = test: Toxicity against adult Tetranychus urticae WI (two-spotted spider mite) in compound pretreated bean leaves assessed as mortality
Tetranychus urticae [37] = test: Resistance ratio of LC50 for METI-resistant Tetranychus urticae MR-VP (two-spotted spider mite) to LC50 for Tetranychus urticae GSS
Tetranychus urticae [38] = test: Synergism ratio of LC50 for adult Tetranychus urticae BR-VL (two-spotted spider mite) to LC50 for adult Tetranychus urticae BR-VL in presence of 2000 mg/L GST inhibitor, DEM application
Tetranychus urticae [39] = test: Synergism ratio of LC50 for adult Tetranychus urticae BEL-1 (two-spotted spider mite) to LC50 for adult Tetranychus urticae BEL-1 in presence of 2000 mg/L esterase inhibitor, DEF application
Tetranychus urticae [40] = test: Synergism ratio of LC50 for adult Tetranychus urticae BR-VL (two-spotted spider mite) to LC50 for adult Tetranychus urticae BR-VL in presence of 2000 mg/L cytochrome P450 monoxygenase inhibitor, PBO
Tetranychus urticae [41] = test: Synergism ratio of LC50 for adult Tetranychus urticae BEL-1 (two-spotted spider mite) to LC50 for adult Tetranychus urticae BEL-1 in presence of 2000 mg/L cytochrome P450 monoxygenase inhibitor, PBO
Tetranychus urticae [42] = test: Synergism ratio of LC50 for adult Tetranychus urticae BEL-1 (two-spotted spider mite) to LC50 for adult Tetranychus urticae BEL-1 in presence of 2000 mg/L GST inhibitor, DEM application
Tetranychus urticae [43] = test: Synergism ratio of LC50 for adult Tetranychus urticae BR-VL (two-spotted spider mite) to LC50 for adult Tetranychus urticae BR-VL in presence of 2000 mg/L esterase inhibitor, DEF application

SMILES: CO/C=C(/C(=O)OC)c1ccccc1COc1cc(C(F)(F)F)nc(OC(C)C)n1 [FLUACRYPYRIM]
- LC50 (Tetranychus urticae [1]): > 10000 mg/L
- LC50 (Tetranychus urticae [2]): > 10000 mg/L
- RatioLC50 (Tetranychus urticae [3]): >1515
- RatioLC50 (Tetranychus urticae [4]): 1.7
- LC50 (Tetranychus urticae [5]): > 10000 mg/L
- LC50 (Tetranychus urticae [6]): > 10000 mg/L
- LC50 (Tetranychus urticae [7]): 28.8 mg/L (≈ 67.5 µM)
- LC50 (Tetranychus urticae [8]): > 10000 mg/L
- LC50 (Tetranychus urticae [9]): 4.2 mg/L (≈ 9.85 µM)
- RatioLC50 (Tetranychus urticae [10]): >1515
- LC50 (Tetranychus urticae [11]): > 10000 mg/L
- RatioLC50 (Tetranychus urticae [12]): >1515
- LC50 (Tetranychus urticae [13]): > 10000 mg/L
- LC50 (Tetranychus urticae [14]): > 10000 mg/L
- RatioLC50 (Tetranychus urticae [15]): >1515
- LC50 (Tetranychus urticae [16]): > 10000 mg/L
- RatioLC50 (Tetranychus urticae [17]): >1515
- LC50 (Tetranychus urticae [18]): > 10000 mg/L
- RatioLC50 (Tetranychus urticae [19]): 0.5
- LC50 (Tetranychus urticae [20]): > 10000 mg/L
- RatioLC50 (Tetranychus urticae [21]): >1515
- LC50 (Tetranychus urticae [22]): > 10000 mg/L
- LC50 (Tetranychus urticae [23]): > 10000 mg/L
- LC50 (Tetranychus urticae [24]): > 10000 mg/L
- LC50 (Tetranychus urticae [25]): 3.8 mg/L (≈ 8.91 µM)
- LC50 (Tetranychus urticae [26]): > 10000 mg/L
- RatioLC50 (Tetranychus urticae [27]): 0.5
- LC50 (Tetranychus urticae [28]): 6.6 mg/L (≈ 15.5 µM)
- LC50 (Tetranychus urticae [29]): > 10000 mg/L
- LC50 (Tetranychus urticae [30]): > 10000 mg/L
- RatioLC50 (Tetranychus urticae [31]): >1515
- RatioLC50 (Tetranychus urticae [32]): 1.6
- LC50 (Tetranychus urticae [33]): > 10000 mg/L
- LC50 (Tetranychus urticae [34]): 12.4 mg/L (≈ 29.1 µM)
- RatioLC50 (Tetranychus urticae [35]): 4.4
- LC50 (Tetranychus urticae [36]): 3 mg/L (≈ 7.04 µM)
- RatioLC50 (Tetranychus urticae [37]): >1515

SMILES: CCCCCCCCCCCCC1=C(OC(C)=O)C(=O)c2ccccc2C1=O [ACEQUINOCYL]
- LC50 (Tetranychus urticae [1]): 209 mg/L (≈ 544 µM)
- RatioLC50 (Tetranychus urticae [38]): 1.5
- LC50 (Tetranychus urticae [2]): 782 mg/L (≈ 2030 µM)
- RatioLC50 (Tetranychus urticae [3]): 1
- RatioLC50 (Tetranychus urticae [4]): 2.26
- LC50 (Tetranychus urticae [5]): 30.5 mg/L (≈ 79.3 µM)
- LC50 (Tetranychus urticae [6]): 10.2 mg/L (≈ 26.5 µM)
- LC50 (Tetranychus urticae [7]): 15.8 mg/L (≈ 41.1 µM)
- LC50 (Tetranychus urticae [8]): 535 mg/L (≈ 1390 µM)
- LC50 (Tetranychus urticae [9]): 9.9 mg/L (≈ 25.7 µM)
- RatioLC50 (Tetranychus urticae [10]): 0.8
- LC50 (Tetranychus urticae [11]): 1180 mg/L (≈ 3070 µM)
- RatioLC50 (Tetranychus urticae [12]): 48.5
- LC50 (Tetranychus urticae [13]): 450 mg/L (≈ 1170 µM)
- RatioLC50 (Tetranychus urticae [39]): 1.2
- LC50 (Tetranychus urticae [14]): 1060 mg/L (≈ 2760 µM)
- RatioLC50 (Tetranychus urticae [15]): 0.9
- LC50 (Tetranychus urticae [16]): 10.7 mg/L (≈ 27.8 µM)
- RatioLC50 (Tetranychus urticae [17]): 0.9
- LC50 (Tetranychus urticae [18]): 9.4 mg/L (≈ 24.4 µM)
- RatioLC50 (Tetranychus urticae [19]): 1.4
- LC50 (Tetranychus urticae [20]): 22.3 mg/L (≈ 58 µM)
- RatioLC50 (Tetranychus urticae [21]): 105
- LC50 (Tetranychus urticae [22]): 126 mg/L (≈ 328 µM)
- LC50 (Tetranychus urticae [23]): 26.2 mg/L (≈ 68.1 µM)
- LC50 (Tetranychus urticae [24]): 79.4 mg/L (≈ 206 µM)
- RatioLC50 (Tetranychus urticae [40]): 5.6
- LC50 (Tetranychus urticae [25]): 5 mg/L (≈ 13 µM)
- LC50 (Tetranychus urticae [26]): 1200 mg/L (≈ 3120 µM)
- RatioLC50 (Tetranychus urticae [27]): 2.3
- LC50 (Tetranychus urticae [28]): 11.3 mg/L (≈ 29.4 µM)
- RatioLC50 (Tetranychus urticae [41]): 6.9
- LC50 (Tetranychus urticae [29]): 548 mg/L (≈ 1430 µM)
- LC50 (Tetranychus urticae [30]): 484 mg/L (≈ 1260 µM)
- RatioLC50 (Tetranychus urticae [31]): 11.1
- RatioLC50 (Tetranychus urticae [32]): 1.1
- LC50 (Tetranychus urticae [33]): 11.2 mg/L (≈ 29.1 µM)
- LC50 (Tetranychus urticae [34]): 8.3 mg/L (≈ 21.6 µM)
- RatioLC50 (Tetranychus urticae [35]): 1.4
- RatioLC50 (Tetranychus urticae [42]): 1.1
- LC50 (Tetranychus urticae [36]): 26.5 mg/L (≈ 68.9 µM)
- RatioLC50 (Tetranychus urticae [37]): 2.7
- RatioLC50 (Tetranychus urticae [43]): 1.1
